Columns and labels:
C. albicans = test: Preservation challenge test of inoculated O/W emulsion (ISO 11930), C. albicans; type: cell-based, Candida albicans; settings: PTT: 0.4 wt.-%, HG & EHG: 0.6 wt.-%
Method: (§1) The evaluation of the preservation of a cosmetic formulation is based on inoculation of the formulation as outlined in table 1 with calibrated inocula (prepared from relevant strains of micro-organisms). Therefore, to each formulation 0.2 ml of calibrated inoculum is added to obtain between 1×10^4 cfu/ml and 1×10^7 cfu/ml or g for bacteria, and between 1×10^2 cfu/ml and 1×10^6 cfu/ml or g for C. albicans and A. brasiliensis in the formulation (final concentration), which is mixed thoroughly into the formulation to ensure a homogeneous distribution of the inoculum. Then the respective containers containing the inoculated formulations are stored @ 22.5±2.5° C. At each specified sampling interval (initial (T0), 7 days (T7) and 28 days (T28)) 1 g of the inoculated formulation is taken and a dilution prepared to perform the enumeration of surviving micro-organisms. Then, for each time and each strain/strain mixture, the average log value is calculated which is represented in tables 2-6. (Procedure: see ISO 11930, chapter 5.2.-5.6.3.4. (page 3-13))

A. brasiliensis = test: Preservation challenge test of inoculated O/W emulsion (ISO 11930), A. brasiliensis; type: cell-based, Aspergillus brasiliensis
Method: as §1

[1] = tested on: Bacterial cocktail (E. Coli, P. aeruginosa, S. aureus); test: Preservation challenge test of inoculated O/W emulsion (ISO 11930), bacterial cocktail; type: cell-based; settings: PTT: 0.3 wt -%, HG & EHG: 0.4 wt.-%
Method: as §1

[2] = PTT: 0.1 wt.-%, HG & EHG: 0.9 wt.-%, time 0 days
[3] = PTT: 0.1 wt.-%, HG & EHG: 0.9 wt.-%, time 7 days
[4] = PTT: 0.1 wt.-%, HG & EHG: 0.9 wt.-%, time 28 days
[5] = PTT: 0.3 wt.-%, HG & EHG: 0.4 wt.-%, time 0 days
[6] = PTT: 0.3 wt.-%, HG & EHG: 0.4 wt.-%, time 7 days
[7] = PTT: 0.3 wt.-%, HG & EHG: 0.4 wt.-%, time 28 days
[8] = PTT: 0.4 wt.-%, HG & EHG: 0.6 wt.-%, time 0 days
[9] = PTT: 0.4 wt.-%, HG & EHG: 0.6 wt.-%, time 7 days
[10] = PTT: 0.4 wt.-%, HG & EHG: 0.6 wt.-%, time 28 days

Row | SMILES | Average log [cfu/ml] (C. albicans; time 0 days) | Average log [cfu/ml] (C. albicans; time 7 days) | Average log [cfu/ml] (C. albicans; time 28 days) | Average log [cfu/ml] (A. brasiliensis; [2]) | Average log [cfu/ml] (A. brasiliensis; [3]) | Average log [cfu/ml] (A. brasiliensis; [4]) | Average log [cfu/ml] (A. brasiliensis; [5]) | Average log [cfu/ml] (A. brasiliensis; [6]) | Average log [cfu/ml] (A. brasiliensis; [7]) | Average log [cfu/ml] (A. brasiliensis; [8]) | Average log [cfu/ml] (A. brasiliensis; [9]) | Average log [cfu/ml] (A. brasiliensis; [10]) | Average log [cfu/ml] ([1]; time 0 days) | Average log [cfu/ml] ([1]; time 7 days) | Average log [cfu/ml] ([1]; time 28 days)
1 | CCCCC(CC)COCC(O)CO (stereo not drawn) [EHG, Ethylhexyl glycerine] | 3.2 log [cfu/ml] | 6.1 log [cfu/ml] | 6.0 log [cfu/ml] | 4.6 log [cfu/ml] | 4.2 log [cfu/ml] | 4.5 log [cfu/ml] | 4.6 log [cfu/ml] | 4.6 log [cfu/ml] | 4.6 log [cfu/ml] | 4.6 log [cfu/ml] | 4.4 log [cfu/ml] | 4.6 log [cfu/ml] | 5.3 log [cfu/ml] | 7.0 log [cfu/ml] | 6.5 log [cfu/ml]
2 | CC(C)CCCC(C)CCCC(C)CCCC(C)(O)C(O)CO (stereo not drawn) [PTT, 3,7,11,15-tetramethyl-hexadecane-1,2,3-triol] | 3.0 log [cfu/ml] | 6.8 log [cfu/ml] | 7.1 log [cfu/ml] | 2.1 log [cfu/ml] | 3.6 log [cfu/ml] | 4.4 log [cfu/ml] | 6.3 log [cfu/ml] | 5.7 log [cfu/ml] | 5.8 log [cfu/ml] | 1.7 log [cfu/ml] | 3.5 log [cfu/ml] | 4.5 log [cfu/ml] | 6.5 log [cfu/ml] | 2 log [cfu/ml] | 2 log [cfu/ml]
3 | CCCCCCOCC(O)CO (stereo not drawn) [HG, 3-(hexyloxy)-1,2-propanediol] | 4.3 log [cfu/ml] | 3.6 log [cfu/ml] | 3.1 log [cfu/ml] | 4.2 log [cfu/ml] | 1.3 log [cfu/ml] | 0 log [cfu/ml] | 4.7 log [cfu/ml] | 3.7 log [cfu/ml] | 3.5 log [cfu/ml] | 4.3 log [cfu/ml] | 3.6 log [cfu/ml] | 3.1 log [cfu/ml] | 4.9 log [cfu/ml] | 5.7 log [cfu/ml] | 5.6 log [cfu/ml]

Reference: patent publication US20220211594A1, “TOPICAL COMPOSITIONS” (DSM IP ASSETS B.V., priority 2019, published 2022)
